# Measurements reported in patent publication US9603872B2, “Methods and compositions for mitochondrial replacement therapy” (The McLeon Hospital Corporation, priority 2007, dated 2017).
# “And” between values parts separate entries of the source, which are not always exact repeats. Equal values may be shown once. “Also recorded” adds a separate entry of the source. Read-outs that look alike come from different tables or passages of the source.
# Tests used:
# [1] = test system: fibroblasts from BD subjects; experiment: ATP levels by bioluminescence (luciferase) assay after metabolic stress; assay type: cell-based, human
# Method: (§1) Loss of red JC1 signal relative to monomeric green JC1 indicates collapse of mitochondrial membrane […] (Smiley et al., Proc. Natl. Acad. Sci. 88:3671-3675 (1991) and Cossarizza et al., Biochem. Biophys. Res. Comm. 197:40-45 (1993)).
# (§2) ATP production was measured in cultured fibroblast lines using the Roche ATP Bioluminescence assay kit CLSII following the manufacturer's protocol (Roche Diagnostics, Mannheim, Germany). Briefly, cells were plated at a concentration of 2.5×10^5 cellsper 60 mm dish were used for each experiment and experiments were conducted two days later. Cell lysis was achieved by boiling in lysis solution ([…], 4 mM EDTA, pH=7.75) followed by incubation for 2 min at 100° C. The cells then were centrifuges spun at 1000×g for 1 min. The supernatants were used for total cell ATP determination. Samples were run in triplicate on a 96-well plate MLX luminometer (Dynex Technologies, Chantilly, Va., USA). Integration was delayed for 1 sec after the addition of luciferase and luminescence was measured for 10 seconds at an emission maximum of […]. Following ATP luminescence measurements, data was normalized to protein concentration as determined by the method of Bradford (Bradford DC assay, BioRad, Temecula, Calif., USA) to yield nanograms of ATP per mg of protein. Assays were performed in triplicate.
# (§3) Fibroblasts (n=6) and lymphocytes (n=6) from patients with BD and age-matched controls (Fibroblasts, n=6; lymphocytes, n=6)) were exposed to hydrocortisone to induce mitochondrial stress (REFS). Hydrocortisone (Sigma H0888, St. Louis, Mo., USA) was dissolved in 50% ethanol/50% culture medium to yield a 40 mM stock solution. Hydrocortisone was then diluted to appropriate experimental concentrations (10 nM, 1 uM, 100 uM) with above described growth media. Confluent (85-95%) fibroblasts and lymphocytes (1×10^5 ? 1×10^6) were treated for 24 hr with hydrocortisone (sub-acute stress). Cells treated with vehicle (25% ethanol) alone served as controls. Following hydrocortisone treatment, fibroblasts were examined for alterations in mitochondrial morphology, membrane potential, and ATP levels, as described above. All experiments were performed in triplicate.
# (§4) We also studied an equal number of fibroblast lines from BD and age-matched controls which were exposed to 100 μM hydrogen peroxide for 24 hrs (REFS). ATP levels were assayed as described above. Light microscopic analysis of JC1 to determine changes in mitochondrial membrane potential also were performed as previously described.
# [2] = test system: fibroblasts from BD patients; experiment: Mitochondrial morphology by MitoTracker 7510 after metabolic stress; assay type: cell-based, human
# Method: as §3, with “The fluorescent marker, MitoTracker-[…] Fibroblasts (n=6)” for “Fibroblasts (n=6)”, “in triplicate. […] ATP levels were assayed as described above.” for “in triplicate.”
# control fibroblasts [3] = experiment: as above; assay type: cell-based, human
# Method: as §3, with “The fluorescent marker, MitoTracker-[…] Fibroblasts (n=6)” for “Fibroblasts (n=6)”, “in triplicate. […] ATP levels were assayed as described above.” for “in triplicate.”
# BD fibroblasts = experiment: Mitochondrial membrane potential by JC-1 staining after metabolic stress; assay type: cell-based, human
# Text: as §1
# (§5) The cationic fluorescent dye, JC-1 (5,5′,6,6′-tetrachloro-1,1′,3,3′-tetraethylbenzimidazolylcarbocyanine iodide) (Strategene, La Jolla, Calif. USA), was used to detect changes in mitochondrial membrane potential according to manufacturer's protocol. JC-1 reagent produces a red fluorescence (absorption/emission maxima=585/590 nm) after accumulation and aggregation in healthy, non-apoptotic cells with intact mitochondrial membrane potential and localizes to the cytoplasm as green with JC-1 monomers fluorescence (absorption/emission maxima=510/527 nm) in cells with compromised membrane potential. Briefly, cell lines were plated at a concentration of 2.5×10^4 on coverslips and were incubated with a 1:100 dilution of pre-warmed JC1 in growth media for 15 to 20 min at 37° C., 5% CO2. Cells were then rinsed once with assay buffer and mounted in PBS and analyzed immediately on a fluorescence microscopy. The coverslips were placed on standard microscopy slides and viewed immediately using a Zeiss Axiskop 2 epifluorescence microscope.
# as §3, §4
# [4] = test system: fibroblasts from healthy individuals; experiment: as above; assay type: cell-based, human; settings: 100 μM HC, 24 hr
# Text: as §1, §5, §3, §4
# [5] = test system: Control fibroblasts and lymphocytes; settings: 2 mM, 3 and 5 days, light microscopy
# Method: Mood stabilizing drugs like lithium are commonly used as treatment for BD (Friedman et al., Biol. Psychiatr. 56:340-348 (2004) and Goodwin et al., JAMA 290:1467-1473 (2003)), and all but one of our subjects with BD was receiving lithium. […] Control fibroblasts and lymphocytes were treated with 2 mM lithium carbonate (LiCO3; approximately twice the average serum level of lithium in patients) for 3 and 5 days. Cells treated with a water vehicle only served as controls.
# The fluorescent marker, MitoTracker-M7510 (Invitrogen, Carlsbad Calif.), was used to visualize mitochondria according to manufacturers instructions. Briefly, fibroblasts were plated at 2.5×10^4 and grown on coverslips, subsequently washed one time with pre-warmed growth media and incubated with M7510 at a final concentration of 250 nM in culture media at 37° C., 5% CO2 for 30 min. Cells were then washed once with culture media and fixed in 4% paraformaldehyde in 100 mM phosphate buffer pH 7.4 for 15 min. Following fixation, coverslips were rinsed two times in PBS and mounted in Gel Mount (Biomedia).
# control fibroblasts [6] = settings: H2O2 treated
# Method: as §1
# as §2, with “triplicate. […]” for “triplicate.”
# [7] = HC treatment, BD and control fibroblasts, data not shown
structure (smiles),measurement,setting,value
C[C@]12CCC(=O)C=C1CC[C@@H]1[C@@H]2[C@@H](O)C[C@@]2(C)[C@H]1CC[C@]2(O)C(=O)CO [hydrocortisone],differences in ATP levels after treatment,[1]; [7],did not reach statistical significance
same,mitochondrial morphology (MitoTracker 7510),"[2]; 100 μM HC, 24 hr",perinuclear clustering like that seen in untreated cells but a greater degree of mitochondrial fragmentation
same,mitochondrial morphology (MitoTracker 7510) vs untreated cells,"control fibroblasts [3]; 100 μM HC, 24 hr",some loss in the reticular pattern of mitochondria; also recorded: a slight loss in the reticular pattern of the mitochondrial network and greater frequency of perinuclear clustering
same,JC1 staining (red aggregates vs green monomer),"BD fibroblasts; 100 μM HC, 24 hr",an even greater loss of red JC1 mitochondrial aggregates; also recorded: a loss of red JC1 mitochondrial aggregates in the majority of cells
same,ratiometric changes in JC1 after treatment,BD fibroblasts; [7],did not reach statistical significance
same,JC-1 staining (red aggregates vs green monomer) vs untreated cells,[4],loss of red mitochondrial aggregates in most cells; also recorded: loss of red mitochondrial aggregates
"O=C([O-])[O-].[Li+].[Li+] [LiCO3, lithium carbonate]",mitochondrial shape and distribution vs vehicle treated cells,[5],no significant differences in mitochondrial shape and distribution
same,mitochondrial shape and distribution vs vehicle treated cells,[5]; listed as lithium,could not be replicated
"OO [H2O2, hydrogen peroxide]",ATP compared to untreated control cells,control fibroblasts [6],no significant difference
same,"ATP levels, mean",control fibroblasts [6]; method b169: normalized to nanograms of ATP per mg of protein,9.9×10^−4
same,decrease in ATP levels compared to untreated BD fibroblasts,"[1]; H2O2 treated, p<0.001",83%
same,decrease in ATP levels compared to control cells exposed to H2O2,"[1]; H2O2 treated, p<0.05",93%
same,"ATP levels, mean","[1]; H2O2 treated, method b169: normalized to nanograms of ATP per mg of protein",6.2×10^−5 and 6.2×10^−4
same,mitochondrial morphology (MitoTracker 7510) vs untreated cells,"[2]; 100 μM H2O2, 24 hrs","almost complete loss of the mitochondrial network, mitochondrial clustering and dramatic mitochondrial fragmentation"
same,mitochondrial morphology (MitoTracker 7510) vs untreated cells,"control fibroblasts [3]; 100 μM H2O2, 24 hrs","a dispersed mitochondrial network with loss of elongated mitochondrial profiles, increased perinuclear clustering, and increased mitochondrial fragmentation; also recorded: dispersion of the mitochondrial network with loss of elongated mitochondrial profiles"
same,JC1 staining (mitochondrial membrane integrity),"BD fibroblasts; 100 μM H2O2, 24 hrs",severe loss of mitochondrial membrane integrity
